Here are results for one compound from ChEMBL document CHEMBL1151902, “Discovery and SAR of cinnolines/quinolines as liver X receptor (LXR) agonists with binding selectivity for LXRbeta” (Bioorg Med Chem, 2009).

A short description of series [1]: Metabolic stability in mouse liver microsomes assessed as half life. The format is ADME, Microsome. A general note: Liver microsomes are a subcellular fraction often used to study metabolism.
Series [2] is described as follows: Aqueous solubility of the compound. The format is physicochemical. The settings on record: buffer.

By half-life is commonly meant how long it takes for the measured level to halve. The solubility is how much of the substance goes into solution per volume.

≈ marks a conversion by molar mass, not a printed value.

Consider `Cn1ccc2cccc(COc3cccc(-c4c(Cc5ccccc5)nnc5c(C(F)(F)F)cccc45)c3)c21`, for which, in series [1], the half-life is < 5 min. In series [2], the solubility was determined as 2 µg/mL (≈ 3.82 µM).
